According to patent publication US20250205191A1, “R(-)-MDMA COMPOSITIONS AND METHODS OF TREATMENT” (EmpathBio, Inc., priority 2023, published 2025):

Legend:
[1] = Phase 1 clinical study, urine pharmacokinetics (urinalysis); format: in vivo, human
[2] = Phase 1 clinical study, plasma pharmacokinetics; conditions: for AUC0-t / Cmax / t1/2: mean (SD); for Tmax: median (minimum, maximum)
[3] = test system: rat embryonic cortical neurons; test: In vitro rat cortical neurite outgrowth; format: cell-based; conditions: 250 nM positive control, vs vehicle
Protocol: The experiment included a 0.1% sterile water vehicle negative control condition and a 250 nM donepezil positive control condition, and the number of neurites per neuron, total neurite length per neuron and branchpoints per neuron from n=12 wells per treatment were compared to the vehicle control condition.

[4] = biological target: T1, human 5-HT2C (non-edited) receptor (Homo sapiens, UniProt P28335); test: 5-HT2C (non-edited) agonism, inositol monophosphate accumulation (HTRF), CHO-K1 recombinant cells; format: cell-based; conditions: 5-HT2C (non-edited); relative to α-Me-5-HT at its EC100
T1 construct: expressed in transfected cells; host or cells: CHO-K1
T1 sequence (P28335 33-458): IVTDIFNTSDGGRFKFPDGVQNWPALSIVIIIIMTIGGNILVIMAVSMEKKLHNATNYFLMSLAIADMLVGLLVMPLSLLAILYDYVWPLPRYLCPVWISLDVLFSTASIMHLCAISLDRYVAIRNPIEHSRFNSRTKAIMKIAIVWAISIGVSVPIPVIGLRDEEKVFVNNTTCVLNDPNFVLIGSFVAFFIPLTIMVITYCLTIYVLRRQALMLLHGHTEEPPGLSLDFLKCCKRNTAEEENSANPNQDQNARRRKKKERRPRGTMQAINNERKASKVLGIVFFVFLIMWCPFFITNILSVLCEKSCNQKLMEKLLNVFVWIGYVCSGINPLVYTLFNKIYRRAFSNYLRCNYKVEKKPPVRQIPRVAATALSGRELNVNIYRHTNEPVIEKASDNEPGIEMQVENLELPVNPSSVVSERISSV

[5] = biological target: T2, human 5-HT2B receptor (Homo sapiens, UniProt P41595); test: 5-HT2B agonism, inositol monophosphate accumulation (HTRF), CHO-K1 recombinant cells; format: cell-based; conditions: 5-HT2B
T2 construct: expressed in transfected cells; host or cells: CHO-K1
T2 sequence (P41595 whole entry): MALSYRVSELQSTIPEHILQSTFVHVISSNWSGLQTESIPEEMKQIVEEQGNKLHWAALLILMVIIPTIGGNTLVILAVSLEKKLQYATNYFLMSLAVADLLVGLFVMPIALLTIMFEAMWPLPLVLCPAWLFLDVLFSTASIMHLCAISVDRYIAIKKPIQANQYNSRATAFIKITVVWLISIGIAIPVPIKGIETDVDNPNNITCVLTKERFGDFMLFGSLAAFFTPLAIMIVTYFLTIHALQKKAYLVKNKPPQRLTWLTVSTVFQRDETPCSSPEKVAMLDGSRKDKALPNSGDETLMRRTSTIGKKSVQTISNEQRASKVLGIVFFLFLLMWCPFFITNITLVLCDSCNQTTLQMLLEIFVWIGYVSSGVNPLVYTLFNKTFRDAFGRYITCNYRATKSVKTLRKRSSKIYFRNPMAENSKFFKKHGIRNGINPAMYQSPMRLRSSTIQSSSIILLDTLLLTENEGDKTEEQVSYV

[6] = test system: male C57BL/6J mice; test: Mouse extinction of fear learning assay; format: in vivo; conditions: 7.8 mg/kg IP once, vs vehicle
Protocol: Extinction of fear learning in rodents is a useful assay to understand if compounds have the potential to enhance learning processes that may be involved in recovery from SAD and other stress and anxiety related disorders, due to its resemblance to exposure-based therapy in humans. […] Freezing behavior, an indicator of the fear response, was measured in the presence of the CS during the extinction training session (Day 1) and the day after (Day 2, Extinction Testing, in the absence of test article). Locomotor activity was measured during the initial 2-minute habituation period, prior to the presentation of the CS, on Days 1 and 2.

[7] = biological target: T3, human 5-HT2C (edited) receptor (Homo sapiens, UniProt P28335); test: 5-HT2C (edited) agonism, inositol monophosphate accumulation (HTRF), CHO-K1 recombinant cells; format: cell-based; conditions: 5-HT2C (edited); relative to α-Me-5-HT at its EC100
T3 sequence (P28335 33-458): T1 sequence (P28335 33-458)

[8] = test system: healthy volunteers; conditions: published report (Hysek et al., 2014); cited from earlier work
[9] = biological target: T4, human 5-HT2A receptor (Homo sapiens, UniProt P28223); test: 5-HT2A agonism, inositol monophosphate accumulation (HTRF), CHO-K1 recombinant cells; format: cell-based; conditions: 5-HT2A
T4 construct: expressed in transfected cells; host or cells: CHO-K1
T4 sequence (P28223 whole entry): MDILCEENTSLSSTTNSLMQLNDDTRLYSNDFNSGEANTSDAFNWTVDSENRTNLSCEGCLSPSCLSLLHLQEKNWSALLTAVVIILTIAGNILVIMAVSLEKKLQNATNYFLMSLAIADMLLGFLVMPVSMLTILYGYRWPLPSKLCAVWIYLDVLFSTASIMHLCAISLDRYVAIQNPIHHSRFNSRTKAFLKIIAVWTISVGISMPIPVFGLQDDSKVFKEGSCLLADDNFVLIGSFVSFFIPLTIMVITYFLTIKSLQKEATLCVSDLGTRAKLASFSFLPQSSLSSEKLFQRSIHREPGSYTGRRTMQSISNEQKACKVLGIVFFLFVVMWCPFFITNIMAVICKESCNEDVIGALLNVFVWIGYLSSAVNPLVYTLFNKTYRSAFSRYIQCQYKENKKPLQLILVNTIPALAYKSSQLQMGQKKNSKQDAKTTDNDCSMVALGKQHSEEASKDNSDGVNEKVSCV

[10] = test system: healthy volunteers; conditions: racemic MDMA at 125 mg, comparison in FIG. 11; cited from earlier work
[11] = urine analyte after EMP-01 125 mg, Day 9
[12] = urine analyte after single oral 75 mg R(−)-MDMA, Day 1
[13] = urine analyte after single oral 125 mg R(−)-MDMA, Day 1
[14] = urine analyte after single oral 175 mg R(−)-MDMA, Day 1
[15] = urine analyte after single oral 225 mg R(−)-MDMA, Day 1
[16] = plasma analyte after oral 125 mg R(−)-MDMA, Day 9
[17] = plasma analyte after single oral 75 mg R(−)-MDMA, Day 1
[18] = plasma analyte after single oral 125 mg R(−)-MDMA, Day 1
[19] = plasma analyte after single oral 175 mg R(−)-MDMA, Day 1
[20] = plasma analyte after single oral 225 mg R(−)-MDMA, Day 1
[21] = relative to α-Me-5-HT at its EC100

C[C@@H](N)Cc1ccc2c(c1)OCO2 [R-MDA]
Ae12-24, amount excreted at the 12-24 hour collection interval [1, 11]: 0.9794 (0.8552) mg | CAe, cumulative amount of drug excreted [1, 11]: 0.9794 (0.8552) mg | CFe, cumulative fraction of drug excreted [1, 11]: 1.2746 (0.7265) % | CLr, renal clearance rate [1, 11]: 5.3793 (1.5400) L/h | Fe12-24, fraction of drug excreted at the 12-24 hour collection interval [1, 11]: 0.7835 (0.6842) % | Ae12-24, amount excreted at the 12-24 hour collection interval [1, 12]: 0.4622 (0.1101) mg | CAe, cumulative amount of drug excreted [1, 12]: 0.8510 (0.2149) mg | CFe, cumulative fraction of drug excreted [1, 12]: 1.1347 (0.2865) % | CLr, renal clearance rate [1, 12]: 4.6787 (0.8471) L/h | Fe12-24, fraction of drug excreted at the 12-24 hour collection interval [1, 12]: 0.6163 (0.1468) % | Ae12-24, amount excreted at the 12-24 hour collection interval [1, 13]: 0.7850 (0.4299) mg | CAe, cumulative amount of drug excreted [1, 13]: 1.1628 (0.4509) mg | CFe, cumulative fraction of drug excreted [1, 13]: 0.9302 (0.3608) % | CLr, renal clearance rate [1, 13]: 3.7173 (0.9547) L/h | Fe12-24, fraction of drug excreted at the 12-24 hour collection interval [1, 13]: 0.6280 (0.3440) % | Ae12-24, amount excreted at the 12-24 hour collection interval [1, 14]: 0.7076 (0.4510) mg | CAe, cumulative amount of drug excreted [1, 14]: 1.4788 (0.8740) mg | CFe, cumulative fraction of drug excreted [1, 14]: 0.8450 (0.4995) % | CLr, renal clearance rate [1, 14]: 4.3945 (2.1019) L/h | Fe12-24, fraction of drug excreted at the 12-24 hour collection interval [1, 14]: 0.4043 (0.2577) % | Ae12-24, amount excreted at the 12-24 hour collection interval [1, 15]: 0.8450 (0.4995) mg | CAe, cumulative amount of drug excreted [1, 15]: 1.9805 (0.8173) mg | CFe, cumulative fraction of drug excreted [1, 15]: 0.5432 (0.2708) % | CLr, renal clearance rate [1, 15]: 5.1337 (2.2871) L/h | Fe12-24, fraction of drug excreted at the 12-24 hour collection interval [1, 15]: 0.8802 (0.3633) % | time of peak of mean plasma concentration ([2]; metabolite after oral R(−)-MDMA): approximately 12 hours postdose | AUC0-t [2, 16]: 291.6730 (112.2988) h · ng/mL | Cmax [2, 16]: 13.3733 (2.3199) ng/mL | t1/2 [2, 16]: 143.1218 (145.7332) hr | Tmax [2, 16]: 12.042 (12.00, 30.00) hr | AUC0-t [2, 17]: 183.2765 (40.5712) h · ng/mL | Cmax [2, 17]: 7.6733 (1.6139) ng/mL | t1/2 [2, 17]: 39.0473 (19.0557) hr | Tmax [2, 17]: 12.000 (10.00, 12.00) hr | AUC0-t [2, 18]: 307.4702 (66.2889) h · ng/mL | Cmax [2, 18]: 12.7950 (3.1122) ng/mL | Tmax [2, 18]: 12.025 (12.00, 30.03) hr | AUC0-t [2, 19]: 272.6761 (57.5614) h · ng/mL | Cmax [2, 19]: 11.2820 (2.1914) ng/mL | Tmax [2, 19]: 18.000 (12.00, 18.00) hr | AUC0-t [2, 20]: 413.2388 (193.5541) h · ng/mL | Tmax [2, 20]: 21.050 (18.00, 30.00) hr

COc1cc2c(cc1OC)C(=O)C(CC1CCN(Cc3ccccc3)CC1)C2 (stereo not shown) [Donepezil, reference compound]
branchpoints per neuron [3]: significantly and robustly increased | number of neurites per neuron [3]: significantly and robustly increased | total neurite length per neuron [3]: significantly and robustly increased

CNC(C)Cc1ccc2c(c1)OCO2 (racemic) [Racemic MDMA, 3,4-methylenedioxymethamphetamine, reference compound]
Efficacy (% of a-Me-5-HT response) [4]: 95.3% | EC50 ([5]; CHO-K1, IP accumulation): 194 nM | Efficacy (% of a-Me-5-HT response) [5, 21]: 91.2% | freezing behavior ([6]; 30 min prior to extinction training): significantly reduced freezing behavior on Days 1 and 2 | locomotor activity [6]: increased locomotor activity on Days 1 and 2 | Efficacy (% of a-Me-5-HT response) [7]: 97.7% | reduction of bias to angry faces [8]: 12.5% | EC50 ([9]; CHO-K1, IP accumulation): 4730 nM | Efficacy (% of a-Me-5-HT response) [9, 21]: 68.4% | 11D-ASC response profile [10]: no visual hallucinations and little to no insight
